Source: patent publication US20250327110A1, “HIGH THROUGHPUT MULTIPLEXED SERUM BASED BACTERICIDAL ASSAYS (SBAs), AND KITS FOR USE THEREIN” (priority 2024, published 2025)

Legend:
S. sonnei strain Moseley = format: cell-based, Shigella sonnei; conditions: for Antibiotic Sensitivity: strain Moseley (sonnei); for antibiotic resistance screening: strain Moseley, natural resistance
Source text: (§1) Strains 2457T (S. flexneri 2a) and SNP0006 (S. flexneri 6) were made resistant to streptomycin and nalidixic acid, respectively, by natural selection as previously described (Burton, R. L. and M. H. Nahm, “Development and validation of a fourfold multiplexed opsonization assay (MOPA4) for pneumococcal antibodies”, Clin Vaccine Immunol, 2006. 13(9): p. 1004-9). Strain J17B (S. flexneri 3a) was made kanamycin resistant by transduction with a nadC:kan fusion gene with P1 phage (Prunier, A. L., et al., “Genetic structure of the nadA and nadB antivirulence loci in Shigella spp.”, J Bacteriol, 2007. 189(17): p. 6482-6), which was obtained from a S. flexneri 2a strain (BS655) (personal communication with Dr. C. Turnbough at UAB).
(§2) To prepare working stocks for the target strains, primary stocks were streaked onto blood agar plates and incubated at 37° C./5% CO2. After overnight culture, multiple colonies were transferred to liquid culture medium (Todd-Hewitt broth with 0.5% yeast extract) and grown at 37° C. until cultures reached an OD600 of 0.5-1.4. After reaching the desired OD, glycerol was added to a final concentration of 16%, and 0.5-ml aliquots were prepared and stored at ≤−60° C. until needed. Each WS was tested to confirm the antibiotic sensitivity/resistance profile and to determine the optimal dilution of bacteria to use for the assay.
(§3) All target strains were tested individually in assay conditions for growth on plates containing antibiotics.

[1] = system: SNP0001 (flexneri 2a, parent 2457T); assay: antibiotic sensitivity of mSBA target strain SNP0001; format: cell-based, Shigella flexneri; conditions: strain SNP0001 (flexneri 2a)
Source text: as §1, §2, §3

[2] = system: SNP0004 (flexneri 3a, parent J17B); assay: antibiotic sensitivity of mSBA target strain SNP0004; format: cell-based, Shigella flexneri; conditions: strain SNP0004 (flexneri 3a)
Source text: as §1, §2, §3

[3] = system: SNP0006 (flexneri 6, parent CCH060); assay: antibiotic sensitivity of mSBA target strain SNP0006; format: cell-based, Shigella flexneri; conditions: strain SNP0006 (flexneri 6)
Source text: as §1, §2, §3

Row | Compound | Antibiotic Sensitivity (S. sonnei strain Moseley) | antibiotic resistance screening (S. sonnei strain Moseley) | Antibiotic Sensitivity [1] | Antibiotic Sensitivity [2] | Antibiotic Sensitivity [3]
1 | C[C@H]1c2cccc(O)c2C(O)=C2C(=O)[C@]3(O)C(O)=C(C(N)=O)C(=O)[C@@H](N(C)C)[C@@H]3[C@@H](O)[C@@H]21 [Dox, doxycycline] | R | naturally resistant | S | S | S
2 | NC[C@H]1O[C@H](O[C@H]2[C@H](O)[C@@H](O[C@H]3O[C@H](CO)[C@@H](O)[C@H](N)[C@H]3O)[C@H](N)C[C@@H]2N)[C@H](O)[C@@H](O)[C@@H]1O [Kan, kanamycin] | S |  | S | R | S
3 | CCn1cc(C(=O)O)c(=O)c2ccc(C)nc21 [NA, nalidixic acid] | S | sensitive | S | S | R
4 | [H]/N=C(/N)N[C@H]1[C@H](O)[C@@H](O)[C@H](O[C@@H]2O[C@@H](C)[C@](O)(C=O)[C@H]2O[C@@H]2O[C@@H](CO)[C@H](O)[C@@H](O)[C@@H]2NC)[C@@H](N/C(N)=N\[H])[C@@H]1O [Strep, streptomycin] | S | sensitive | R | S | S
